Measured values as given in US20190134129A1, “METHOD FOR ALLEVIATING ULTRAVIOLET DAMAGE WITH ETHYL ACETATE-EXTRACTED PRODUCT OF SEDUM FORMOSANUM” (Sinotai Oncology Associate., Ltd., priority 2017, published 2019).

System: HaCaT cells
Assay: Apoptosis assay (FITC Annexin V/PI) of UV- or X-ray-irradiated HaCaT cells
Format: cell-based, human
Settings: UV 50 mJ/cm^2, 48 hours
From the text: A. Test Sample Pretreatment and Irradiation Treatment

Compound	Apoptosis percentage (%) (125 μg/mL pretreatment)	Apoptosis percentage (%) (250 μg/mL pretreatment)
O=c1c(O[C@@H]2O[C@H](CO)[C@@H](O)[C@H](O)[C@H]2O)c(-c2ccc(O)cc2)oc2cc(O)cc(O)c12 [astragalin]	22.37 ± 3.32	69.07 ± 5.07
O=c1cc(-c2ccc(O)cc2)oc2c([C@@H]3O[C@H](CO)[C@@H](O)[C@H](O)[C@H]3O)c(O)cc(O)c12 [vitexin]	20.00 ± 0.73	70.93 ± 1.52
